# Species on record: Rattus norvegicus
# Assay: DrugMatrix - Regimen: Daily Repeat
# Assay type: toxicity, organism-based, Sprague-Dawley
# Parameters: regimen Daily Repeat, gender Male, age 6-8 weeks
# Conditions: in vivo, po, route oral GAVAGE, vehicle .5 % CMC; for BASOPHIL / EOSINOPHIL / ERYTHROCYTE COUNT / HEMATOCRIT / HEMOGLOBIN / LEUKOCYTE COUNT / LYMPHOCYTE / MEAN CORPUSCULAR HEMOGLOBIN / MEAN CORPUSCULAR HEMOGLOBIN CONCENTRATION / MEAN CORPUSCULAR VOLUME / MONOCYTE / NEUTROPHIL / PLATELET COUNT: tissue Blood; for ALANINE AMINOTRANSFERASE / ALBUMIN / ALKALINE PHOSPHATASE / ASPARTATE AMINOTRANSFERASE / BLOOD UREA NITROGEN / CHLORIDE / CHOLESTEROL / CREATINE PHOSPHOKINASE / CREATININE / GLUCOSE / PHOSPHORUS / POTASSIUM / SODIUM / TOTAL BILIRUBIN / TOTAL PROTEIN: tissue Plasma
# [1] = 0 mg/kg, 72 h, dose level Control, time 3 day
# [2] = 0 mg/kg, 120 h, dose level Control, time 5 day
# [3] = 570 mg/kg, 72 h, dose level High, time 3 day
# [4] = 570 mg/kg, 120 h, dose level High, time 5 day
compound,measurement,setting,value
COc1ccc2c(c1OC)C(=O)O[C@@H]2[C@H]1c2c(cc3c(c2OC)OCO3)CCN1C [NOSCAPINE],BASOPHIL,[1],0.68%
same,EOSINOPHIL,[1],0.46%
same,ERYTHROCYTE COUNT,[1],7.15 x10E6/uL
same,HEMATOCRIT,[1],45.44%
same,HEMOGLOBIN,[1],14.1 G/DL
same,LEUKOCYTE COUNT,[1],9.78 x10E3/uL
same,LYMPHOCYTE,[1],84.44%
same,MEAN CORPUSCULAR HEMOGLOBIN,[1],19.72 pg
same,MEAN CORPUSCULAR HEMOGLOBIN CONCENTRATION,[1],31 G/DL
same,MEAN CORPUSCULAR VOLUME,[1],63.66 fL
same,MONOCYTE,[1],2.14%
same,NEUTROPHIL,[1],11.16%
same,PLATELET COUNT,[1],1378.2 x10E3/uL
same,ALANINE AMINOTRANSFERASE,[1],42.33 u/L
same,ALBUMIN,[1],3.8 G/DL
same,ALKALINE PHOSPHATASE,[1],388.17 u/L
same,ASPARTATE AMINOTRANSFERASE,[1],68 u/L
same,BLOOD UREA NITROGEN,[1],16.17 mg/dL
same,CHLORIDE,[1],96.67 MEQ/L
same,CHOLESTEROL,[1],71 mg/dL
same,CREATINE PHOSPHOKINASE,[1],156.17 u/L
same,CREATININE,[1],0.57 mg/dL
same,GLUCOSE,[1],193.67 mg/dL
same,PHOSPHORUS,[1],11.43 mg/dL
same,POTASSIUM,[1],7 MEQ/L
same,SODIUM,[1],140.33 MEQ/L
same,TOTAL BILIRUBIN,[1],0.48 mg/dL
same,TOTAL PROTEIN,[1],6.8 G/DL
same,BASOPHIL,[2],1.47%
same,EOSINOPHIL,[2],1%
same,ERYTHROCYTE COUNT,[2],7.12 x10E6/uL
same,HEMATOCRIT,[2],45.47%
same,HEMOGLOBIN,[2],14.1 G/DL
same,LEUKOCYTE COUNT,[2],11.38 x10E3/uL
same,LYMPHOCYTE,[2],82.57%
same,MEAN CORPUSCULAR HEMOGLOBIN,[2],19.82 pg
same,MEAN CORPUSCULAR HEMOGLOBIN CONCENTRATION,[2],31.02 G/DL
same,MEAN CORPUSCULAR VOLUME,[2],63.88 fL
same,MONOCYTE,[2],2.2%
same,NEUTROPHIL,[2],11.97%
same,PLATELET COUNT,[2],1267 x10E3/uL
same,ALANINE AMINOTRANSFERASE,[2],38 u/L
same,ALBUMIN,[2],3.72 G/DL
same,ALKALINE PHOSPHATASE,[2],391 u/L
same,ASPARTATE AMINOTRANSFERASE,[2],65.83 u/L
same,BLOOD UREA NITROGEN,[2],14.17 mg/dL
same,CHLORIDE,[2],107.67 MEQ/L
same,CHOLESTEROL,[2],61 mg/dL
same,CREATINE PHOSPHOKINASE,[2],148.33 u/L
same,CREATININE,[2],0.57 mg/dL
same,GLUCOSE,[2],177.17 mg/dL
same,PHOSPHORUS,[2],12.07 mg/dL
same,POTASSIUM,[2],7.2 MEQ/L
same,SODIUM,[2],151.5 MEQ/L
same,TOTAL BILIRUBIN,[2],0.58 mg/dL
same,TOTAL PROTEIN,[2],6.72 G/DL
same,BASOPHIL,[3],0.35%
same,EOSINOPHIL,[3],0.35%
same,ERYTHROCYTE COUNT,[3],7.71 x10E6/uL
same,HEMATOCRIT,[3],48.95%
same,HEMOGLOBIN,[3],15.2 G/DL
same,LEUKOCYTE COUNT,[3],9.57 x10E3/uL
same,LYMPHOCYTE,[3],82.8%
same,MEAN CORPUSCULAR HEMOGLOBIN,[3],19.7 pg
same,MEAN CORPUSCULAR HEMOGLOBIN CONCENTRATION,[3],31.05 G/DL
same,MEAN CORPUSCULAR VOLUME,[3],63.4 fL
same,MONOCYTE,[3],3.35%
same,NEUTROPHIL,[3],12%
same,PLATELET COUNT,[3],1473 x10E3/uL
same,ALANINE AMINOTRANSFERASE,[3],27.5 u/L
same,ALBUMIN,[3],3.9 G/DL
same,ALKALINE PHOSPHATASE,[3],381.5 u/L
same,ASPARTATE AMINOTRANSFERASE,[3],56 u/L
same,BLOOD UREA NITROGEN,[3],17.5 mg/dL
same,CHLORIDE,[3],96 MEQ/L
same,CHOLESTEROL,[3],131 mg/dL
same,CREATINE PHOSPHOKINASE,[3],176 u/L
same,CREATININE,[3],0.45 mg/dL
same,GLUCOSE,[3],166 mg/dL
same,PHOSPHORUS,[3],12.8 mg/dL
same,POTASSIUM,[3],6.5 MEQ/L
same,SODIUM,[3],140.5 MEQ/L
same,TOTAL BILIRUBIN,[3],0.55 mg/dL
same,TOTAL PROTEIN,[3],7.25 G/DL
same,BASOPHIL,[4],1.17%
same,EOSINOPHIL,[4],0.53%
same,ERYTHROCYTE COUNT,[4],7.1 x10E6/uL
same,HEMATOCRIT,[4],42.8%
same,HEMOGLOBIN,[4],13.67 G/DL
same,LEUKOCYTE COUNT,[4],9.28 x10E3/uL
same,LYMPHOCYTE,[4],75.47%
same,MEAN CORPUSCULAR HEMOGLOBIN,[4],19.27 pg
same,MEAN CORPUSCULAR HEMOGLOBIN CONCENTRATION,[4],31.97 G/DL
same,MEAN CORPUSCULAR VOLUME,[4],60.33 fL
same,MONOCYTE,[4],2.07%
same,NEUTROPHIL,[4],19.87%
same,PLATELET COUNT,[4],1766.33 x10E3/uL
same,ALANINE AMINOTRANSFERASE,[4],36 u/L
same,ALBUMIN,[4],3.7 G/DL
same,ALKALINE PHOSPHATASE,[4],318.5 u/L
same,ASPARTATE AMINOTRANSFERASE,[4],57 u/L
same,BLOOD UREA NITROGEN,[4],13.5 mg/dL
same,CHLORIDE,[4],106 MEQ/L
same,CHOLESTEROL,[4],100 mg/dL
same,CREATINE PHOSPHOKINASE,[4],142 u/L
same,CREATININE,[4],0.45 mg/dL
same,GLUCOSE,[4],188 mg/dL
same,PHOSPHORUS,[4],12.45 mg/dL
same,POTASSIUM,[4],7 MEQ/L
same,SODIUM,[4],149 MEQ/L
same,TOTAL BILIRUBIN,[4],0.2 mg/dL
same,TOTAL PROTEIN,[4],6.75 G/DL

# Source: ChEMBL document CHEMBL3885881, “DrugMatrix”
